Reference: patent publication US9695155B2, “Herbicidal substituted pyrimidinyloxy benzene compounds” (E. I. DU PONT DE NEMOURS AND COMPANY, priority 2013, dated 2017)

What was measured:
oilseed rape = test: Test D preemergence; type: in vivo, Brassica napus; settings: Brassica napus, pre-emergence
Description: (§1) Seeds of plant species selected from bluegrass (annual bluegrass, Poa annua), blackgrass (Alopecurus myosuroides), canarygrass (littleseed canarygrass, Phalaris minor), chickweed (common chickweed, Stellaria media), galium (catchweed bedstraw, Galium aparine), bromegrass, downy (downy bromegrass, Bromus tectorum), field poppy (Papaver rhoeas), field violet (Viola arvensis), green foxtail (Setaria viridis), deadnettle (henbit deadnettle, Lamium amplexicaule), Italian ryegrass (Lolium multiflorum), kochia (Kochia scoparia), lambsquarters (Chenopodium album), oilseed rape (Brassica napus), pigweed (Amaranthus retroflexus), chamomile (scentless chamomile, Matricaria inodora), Russian thistle (Salsola kali), speedwell (bird's-eye speedwell, Veronica persica), spring barley (Hordeum vulgare), spring wheat (Triticum aestivum), wild buckwheat (Polygonum convolvulus), wild mustard (Sinapis arvensis), wild oat (Avena fatua), wild radish (Raphanus raphanistrum), windgrass (Apera spica-venti), winter barley (Hordeum vulgare), and winter wheat (Triticum aestivum) were planted into a silt loam soil and treated preemergence with test chemicals formulated in a non-phytotoxic solvent mixture which included a surfactant.
(§2) At the same time, these species were planted in pots containing Redi-Earth® planting medium (Scotts Company, 14111 Scottslawn Road, Marysville, Ohio 43041) comprising spaghnum peat moss, vermiculite, wetting agent and starter nutrients and treated with postemergence applications of the test chemicals formulated in the same manner. Plants ranged in height from 2 to 18 cm (1- to 4-leaf stage). Treated plants and controls were maintained in a controlled growth environment for 7 to 21 days after which time all species were compared to controls and visually evaluated. Plant response ratings, summarized in Table D, are based on a scale of 0 to 100 where 0 is no effect and 100 is complete control. A dash (-) response means no test result.

field poppy = test: Test D postemergence; type: in vivo, Papaver rhoeas; settings: Papaver rhoeas, post-emergence
Description: as §1, §2

kochia = test: Test D postemergence; type: in vivo, Kochia scoparia; settings: Bassia scoparia, post-emergence
Description: as §1, §2

field violet = test: Test D postemergence; type: in vivo, Viola arvensis; settings: Viola arvensis, post-emergence
Description: as §1, §2

bluegrass = test: Test D preemergence; type: in vivo, Poa annua; settings: Poa annua, pre-emergence
Description: as §1, §2

deadnettle = test: Test D postemergence; type: in vivo, Lamium amplexicaule; settings: Lamium amplexicaule, post-emergence
Description: as §1, §2

galium = test: Test D preemergence; type: in vivo, Galium aparine; settings: Galium, pre-emergence
Description: as §1, §2

Italian ryegrass = test: Test D postemergence; type: in vivo, Lolium multiflorum; settings: Lolium multiflorum, post-emergence
Description: as §1, §2

spring barley = test: Test D postemergence; type: in vivo, Hordeum vulgare; settings: Hordeum vulgare, post-emergence, Postemergence, scale 0 to 100 (0 no effect, 100 complete control), read-out: Plant response rating, Barley, Spring
How it was run: (§3)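 Seeds sown in silt loam soil got preemergence sprays; plants in peat/vermiculite potting medium were sprayed postemergence at 2–18 cm (1- to 4-leaf stage). Chemicals were formulated in a non-phytotoxic solvent mixture with surfactant. After 7 to 21 days in a controlled environment, injury was rated visually versus controls, 0 (no effect) to 100 (complete control).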

winter barley = test: Test D postemergence; type: in vivo, Hordeum vulgare; settings: Hordeum vulgare, post-emergence, Postemergence, scale 0 to 100 (0 no effect, 100 complete control), read-out: Plant response rating, Barley, Winter
How it was run: as §3

Fc1cccc(Oc2ncc(Cl)cn2)c1-n1cc(C(F)F)nn1 [Compound 141, 5-chloro-2-[2-[4-(difluoromethyl)-1H-1,2,3-triazol-1-yl]-3-fluorophenoxy]pyrimidine]
plant injury at 16 g/ha (oilseed rape; 16 g ai/ha, scale 0 (no effect) to 100 (complete control), read-out: Plant response rating, Oilseed Rape): 100% | plant injury at 31 g/ha (oilseed rape; 31 g ai/ha, scale 0-100, read-out: Plant response rating, Oilseed Rape): 100% | plant injury at 62 g/ha (oilseed rape; 62 g ai/ha, scale 0-100, read-out: Plant response rating, Oilseed Rape): 100% | plant injury at 125 g/ha (oilseed rape; 125 g ai/ha, scale 0-100, read-out: Plant response rating, Oilseed Rape): 100% | pest or weed control at 16 g/ha (field poppy; 16 g ai/ha, scale 0-100, read-out: Plant response rating, Field Poppy): 40% | pest or weed control at 31 g/ha (field poppy; 31 g ai/ha, scale 0 to 100 (0 no effect, 100 complete control), read-out: Plant response rating, Field Poppy): 95% | pest or weed control at 62 g/ha (field poppy; 62 g ai/ha, scale 0 to 100 (0 no effect, 100 complete control), read-out: Plant response rating, Field Poppy): 90% | pest or weed control at 125 g/ha (field poppy; 125 g ai/ha, scale 0 to 100 (0 no effect, 100 complete control), read-out: Plant response rating, Field Poppy): 85% | pest or weed control at 16 g/ha (kochia; 16 g ai/ha, scale 0-100, read-out: Plant response rating, Kochia): 70% | pest or weed control at 31 g/ha (kochia; 31 g ai/ha, scale 0 to 100 (0 no effect, 100 complete control), read-out: Plant response rating, Kochia): 85% | pest or weed control at 62 g/ha (kochia; 62 g ai/ha, scale 0 to 100 (0 no effect, 100 complete control), read-out: Plant response rating, Kochia): 100% | pest or weed control at 125 g/ha (kochia; 125 g ai/ha, scale 0 to 100 (0 no effect, 100 complete control), read-out: Plant response rating, Kochia): 100% | pest or weed control at 16 g/ha (field violet; 16 g ai/ha, scale 0-100, read-out: Plant response rating, Field Violet): 45% | pest or weed control at 31 g/ha (field violet; 31 g ai/ha, scale 0 to 100 (0 no effect, 100 complete control), read-out: Plant response rating, Field Violet): 75% | pest or weed control at 62 g/ha (field violet; 62 g ai/ha, scale 0 to 100 (0 no effect, 100 complete control), read-out: Plant response rating, Field Violet): 85% | pest or weed control at 125 g/ha (field violet; 125 g ai/ha, scale 0 to 100 (0 no effect, 100 complete control), read-out: Plant response rating, Field Violet): 95% | pest or weed control at 16 g/ha (bluegrass; 16 g ai/ha, scale 0 (no effect) to 100 (complete control), read-out: Plant response rating, Bluegrass): 15% | pest or weed control at 31 g/ha (bluegrass; 31 g ai/ha, scale 0-100, read-out: Plant response rating, Bluegrass): 35% | pest or weed control at 62 g/ha (bluegrass; 62 g ai/ha, scale 0-100, read-out: Plant response rating, Bluegrass): 90% | pest or weed control at 125 g/ha (bluegrass; 125 g ai/ha, scale 0-100, read-out: Plant response rating, Bluegrass): 90% | pest or weed control at 16 g/ha (deadnettle; 16 g ai/ha, scale 0-100, read-out: Plant response rating, Deadnettle): 100% | pest or weed control at 31 g/ha (deadnettle; 31 g ai/ha, scale 0 to 100 (0 no effect, 100 complete control), read-out: Plant response rating, Deadnettle): 100% | pest or weed control at 62 g/ha (deadnettle; 62 g ai/ha, scale 0 to 100 (0 no effect, 100 complete control), read-out: Plant response rating, Deadnettle): 100% | pest or weed control at 125 g/ha (deadnettle; 125 g ai/ha, scale 0 to 100 (0 no effect, 100 complete control), read-out: Plant response rating, Deadnettle): 100% | pest or weed control at 16 g/ha (galium; 16 g ai/ha, scale 0 (no effect) to 100 (complete control), read-out: Plant response rating, Galium): 75% | pest or weed control at 31 g/ha (galium; 31 g ai/ha, scale 0-100, read-out: Plant response rating, Galium): 100% | pest or weed control at 62 g/ha (galium; 62 g ai/ha, scale 0-100, read-out: Plant response rating, Galium): 100% | pest or weed control at 125 g/ha (galium; 125 g ai/ha, scale 0-100, read-out: Plant response rating, Galium): 100% | pest or weed control at 16 g/ha (Italian ryegrass; 16 g ai/ha, scale 0-100, read-out: Plant response rating, Ryegrass, Italian): 5% | pest or weed control at 31 g/ha (Italian ryegrass; 31 g ai/ha, scale 0 to 100 (0 no effect, 100 complete control), read-out: Plant response rating, Ryegrass, Italian): 15% | pest or weed control at 62 g/ha (Italian ryegrass; 62 g ai/ha, scale 0 to 100 (0 no effect, 100 complete control), read-out: Plant response rating, Ryegrass, Italian): 20% | pest or weed control at 125 g/ha (Italian ryegrass; 125 g ai/ha, scale 0 to 100 (0 no effect, 100 complete control), read-out: Plant response rating, Ryegrass, Italian): 25% | plant injury at 16 g/ha (spring barley; 16 g ai/ha): 10% | plant injury at 31 g/ha (spring barley; 31 g ai/ha): 20% | plant injury at 62 g/ha (spring barley; 62 g ai/ha): 25% | plant injury at 125 g/ha (spring barley; 125 g ai/ha): 25% | plant injury at 16 g/ha (winter barley; 16 g ai/ha): 20% | plant injury at 31 g/ha (winter barley; 31 g ai/ha): 20% | plant injury at 62 g/ha (winter barley; 62 g ai/ha): 25% | plant injury at 125 g/ha (winter barley; 125 g ai/ha): 35%
